For one experiment, the system named is HCT-116. The experiment in a line: cells. The settings on record: Homo sapiens, HCT-116, 72 h.
For the next experiment, the system named is MOLM-13. In words: Antiproliferative activity against human MOLM-13 cells assessed as reduction in cell viability measured after 72 hrs. The class given is functional, cell-based. The settings on record: MOLM-13, 72 h.
A further experiment concerns HeLa. The experiment in a line: Antiproliferative activity against human HeLa cells assessed as reduction in cell viability measured after 72 hrs. Type of experiment: functional, cell-based.
The next experiment has as its system K562. In words: Antiproliferative activity against human K562 cells assessed as reduction in cell viability measured after 72 hrs. The class given is functional, cell-based. The following applies: K562, 72 h.
The test system of the next experiment is MCF7. The experiment in a line: cells. The settings on record: Homo sapiens, MCF7, 72 h.

Description for HCT-116: Antiproliferative activity against human HCT-116 cells assessed as reduction in cell viability measured after 72 hrs
Description for MCF7: Antiproliferative activity against human MCF7 cells assessed as reduction in cell viability measured after 72 hrs

With `COc1cccc(-c2cc(NCc3ccc4ccccc4c3)nc(N)n2)c1`, the half-maximal inhibitory concentration (IC50) with HCT-116 stood at 130 nM; in the experiment on MOLM-13, 130 nM; in the experiment on HeLa, 290 nM; with K562, 320 nM; with MCF7 it was 290 nM.
For `CC(=O)c1cccc(-c2cc(NCc3ccc4c(c3)OCO4)nc(N)n2)c1`, the IC50 with HCT-116, with MOLM-13, with HeLa, in the experiment on K562 and with MCF7 was more than 2000 nM throughout.
Regarding `Nc1nc(NCc2ccc3c(c2)OCO3)cc(-c2cccc3ccccc23)n1`, the 50% inhibitory concentration (IC50) in the experiment on HCT-116 worked out at 770 nM; with MOLM-13, 220 nM; in the experiment with HeLa, 500 nM; with K562, 250 nM; with MCF7, 960 nM.
For `COc1cccc(-c2cc(NCc3ccc(F)cc3F)nc(N)n2)c1`, in that order: 180 nM, 130 nM, 360 nM, 120 nM and 540 nM.
Consider `Nc1nc(NCc2ccc3c(c2)OCO3)cc(-c2cccc(-c3ccccc3)c2)n1`, for which the IC50 with HCT-116, in the experiment on MOLM-13, in the experiment with HeLa, in the experiment with K562 and in the experiment on MCF7 was more than 2000 nM throughout.
On to `CCOc1ccc(-c2cc(NCc3ccc4c(c3)OCO4)nc(N)n2)cc1`, for which the IC50 in the experiment with HCT-116, in the experiment with MOLM-13, in the experiment on HeLa, with K562 and with MCF7 was more than 2000 nM throughout.
Turning to `COc1cc(-c2cc(NCc3ccc4c(c3)OCO4)nc(N)n2)cc(OC)c1OC`, the IC50 with HCT-116, in the experiment with MOLM-13, in the experiment on HeLa, in the experiment on K562 and with MCF7 was more than 2000 nM throughout.
In the case of `CC(=O)Nc1cccc(-c2cc(NCc3ccc4c(c3)OCO4)nc(N)n2)c1`, the concentration for half-maximal inhibition (IC50) in the experiment on HCT-116, in the experiment with MOLM-13, in the experiment with HeLa, in the experiment with K562 and in the experiment with MCF7 was more than 2000 nM in each case.
As to `COc1cc(OC)cc(-c2cc(NCc3ccc4c(c3)OCO4)nc(N)n2)c1`, the IC50 with HCT-116 was determined as 330 nM; in the experiment on MOLM-13, 60 nM; in the experiment with HeLa, 180 nM; in the experiment with K562 it was 60 nM; with MCF7, 350 nM.
Take `Nc1nc(NCc2ccc3c(c2)OCO3)cc(-c2ccc(Oc3ccccc3)cc2)n1`: the IC50 in the experiment on HCT-116, in the experiment with MOLM-13, with HeLa, in the experiment with K562 and in the experiment on MCF7 was more than 2000 nM each time.
Turning to `Nc1nc(NCc2ccc3c(c2)OCO3)cc(-c2ccc3ccccc3c2)n1`, the IC50 in the experiment on HCT-116 was 1670 nM; in the experiment with MOLM-13 it was more than 2000 nM; with HeLa it was more than 2000 nM; in the experiment on K562, 1820 nM; in the experiment on MCF7, more than 2000 nM.
On to `COc1ccc(-c2cc(NCc3ccc4c(c3)OCO4)nc(N)n2)cc1OC`, for which the IC50 in the experiment on HCT-116, in the experiment on MOLM-13, in the experiment with HeLa, in the experiment with K562 and with MCF7 was more than 2000 nM each time.
Take `COc1cccc(-c2cc(NCc3ccc4c(c3)OCO4)nc(N)n2)c1`: the IC50 in the experiment with HCT-116 amounted to 520 nM; in the experiment with MOLM-13, 190 nM; in the experiment with HeLa, 90 nM; in the experiment on K562 it was 100 nM; in the experiment on MCF7, 690 nM.
For `COc1ccc(CNc2cc(-c3cccc(OC)c3)nc(N)n2)cc1`, the IC50 in the experiment on HCT-116 stood at 520 nM; in the experiment on MOLM-13 it was 120 nM; in the experiment on HeLa, 120 nM; in the experiment on K562, 130 nM; with MCF7, 620 nM.
Take `COc1cccc(-c2cc(NCc3ccc(OC)c(OC)c3)nc(N)n2)c1`: the 50% inhibitory concentration (IC50) worked out at 30 nM in the experiment on HCT-116; 30 nM in the experiment with MOLM-13; 60 nM in the experiment on HeLa; 70 nM in the experiment on K562; 40 nM with MCF7.
Regarding `N#Cc1cccc(-c2cc(NCc3ccc4c(c3)OCO4)nc(N)n2)c1`, the half-inhibitory concentration (IC50) in the experiment on HCT-116, in the experiment with MOLM-13, in the experiment on HeLa, with K562 and in the experiment with MCF7 was more than 2000 nM throughout.
On to `CC(C)c1cccc(-c2cc(NCc3ccc4c(c3)OCO4)nc(N)n2)c1`, for which the half-inhibitory concentration (IC50) in the experiment on HCT-116, with MOLM-13, in the experiment on HeLa, in the experiment on K562 and with MCF7 was more than 2000 nM in each case.
With `Nc1nc(NCc2ccc3c(c2)OCO3)cc(-c2ccc(-c3ccccc3)cc2)n1`, the half-maximal inhibitory concentration (IC50) in the experiment on HCT-116, in the experiment on MOLM-13, in the experiment with HeLa, in the experiment with K562 and with MCF7 was more than 2000 nM throughout.
Regarding `CC(C)c1ccc(-c2cc(NCc3ccc4c(c3)OCO4)nc(N)n2)cc1`, the IC50 with HCT-116, in the experiment with MOLM-13, in the experiment on HeLa, in the experiment on K562 and in the experiment on MCF7 was more than 2000 nM throughout.
Turning to `COc1cccc(-c2cc(N3CCc4cc(OC)c(OC)cc4C3)nc(N)n2)c1`, the IC50 with HCT-116 worked out at 210 nM; in the experiment with MOLM-13 it was 170 nM; with HeLa it was 230 nM; in the experiment with K562, 330 nM; with MCF7, 220 nM.
For `CCCN(Cc1ccc2c(c1)OCO2)c1cc(-c2cccc(OC)c2)nc(N)n1`, in that order: 110 nM, 80 nM, 80 nM, 80 nM and 110 nM.
For `COc1ccc(-c2cc(NCc3ccc4c(c3)OCO4)nc(N)n2)cn1`, the half-inhibitory concentration (IC50) in the experiment with HCT-116 was 820 nM; in the experiment on MOLM-13, 190 nM; in the experiment on HeLa, 200 nM; with K562, 120 nM; with MCF7, 1250 nM.
In the case of `COc1cccc(-c2cc(NCc3cc(F)cc(F)c3)nc(N)n2)c1`, the half-maximal inhibitory concentration (IC50) in the experiment with HCT-116 was 450 nM; in the experiment on MOLM-13, 220 nM; in the experiment with HeLa, 610 nM; in the experiment with K562 it was 350 nM; in the experiment with MCF7 it was 620 nM.
`Nc1nc(NCc2ccc3c(c2)OCO3)cc(-c2ccc3c(c2)CCN3)n1`: the half-maximal inhibitory concentration (IC50) amounted to 300 nM in the experiment with HCT-116; 90 nM in the experiment with MOLM-13; 120 nM with HeLa; 20 nM with K562; 640 nM with MCF7.
For the compound `CC1(C)c2ccccc2-c2ccc(-c3cc(NCc4ccc5c(c4)OCO5)nc(N)n3)cc21`, the IC50 with HCT-116, in the experiment on MOLM-13, with HeLa, in the experiment on K562 and in the experiment with MCF7 was more than 2000 nM each time.
In the case of `Cc1ccc(-c2cc(NCc3ccc4c(c3)OCO4)nc(N)n2)cc1`, the half-maximal inhibitory concentration (IC50) came out at 420 nM in the experiment with HCT-116; 200 nM in the experiment on MOLM-13; 170 nM with HeLa; 150 nM in the experiment on K562; 450 nM in the experiment on MCF7.
For the compound `COc1cccc(-c2cc(NCc3ccc(OC(F)(F)F)cc3)nc(N)n2)c1`, the half-maximal inhibitory concentration (IC50) in the experiment on HCT-116 came to 260 nM; in the experiment on MOLM-13 it was 280 nM; with HeLa, 430 nM; with K562 it was 260 nM; in the experiment on MCF7 it was 590 nM.
As for `Nc1nc(NCc2ccc3c(c2)OCO3)cc(-c2ccncc2)n1`, the IC50 with HCT-116, in the experiment with MOLM-13, in the experiment with HeLa, in the experiment with K562 and in the experiment on MCF7 was more than 2000 nM each time.
Take `CC(C)(C)c1ccc(-c2cc(NCc3ccc4c(c3)OCO4)nc(N)n2)cc1`: the IC50 in the experiment on HCT-116, in the experiment on MOLM-13, in the experiment on HeLa, in the experiment with K562 and with MCF7 was more than 2000 nM in each case.
Turning to `CN(C)c1cccc(-c2cc(NCc3ccc4c(c3)OCO4)nc(N)n2)c1`, the IC50 with HCT-116 worked out at 550 nM; in the experiment on MOLM-13 it was 360 nM; in the experiment on HeLa, 280 nM; in the experiment with K562 it was 300 nM; in the experiment with MCF7 it was 530 nM.
In the case of `Nc1nc(NCc2ccc3c(c2)OCO3)cc(-c2ccc(F)cc2)n1`, the half-inhibitory concentration (IC50) with HCT-116, with MOLM-13, with HeLa, with K562 and in the experiment on MCF7 was more than 2000 nM throughout.
With `COc1cccc(-c2cc(NCc3cc(OC)c(OC)c(OC)c3)nc(N)n2)c1`, the IC50 in the experiment on HCT-116 was found to be 160 nM; in the experiment with MOLM-13 it was 110 nM; in the experiment on HeLa, 330 nM; with K562 it was 280 nM; in the experiment with MCF7, 280 nM.
For `Nc1nc(NCc2ccc3c(c2)OCO3)cc(-c2ccc3c(c2)OCCO3)n1`, the IC50 in the experiment with HCT-116 turned out to be 710 nM; with MOLM-13, 240 nM; in the experiment on HeLa, 520 nM; in the experiment on K562, 170 nM; with MCF7, 650 nM.
On to `Nc1nc(NCc2ccc3c(c2)OCO3)cc(-c2ccc3c(c2)OCO3)n1`, for which the IC50 in the experiment on HCT-116 is 390 nM; in the experiment with MOLM-13 it was 110 nM; in the experiment on HeLa it was 180 nM; in the experiment with K562, 70 nM; with MCF7, 1210 nM.
For `Cn1cc2c(-c3cc(NCc4ccc5c(c4)OCO5)nc(N)n3)cccc2n1`, in that order: more than 2000 nM, more than 2000 nM, more than 2000 nM, more than 2000 nM and more than 2000 nM.
As to `C=CCN(Cc1ccc2c(c1)OCO2)c1cc(-c2cccc(OC)c2)nc(N)n1`, the 50% inhibitory concentration (IC50) in the experiment on HCT-116 is 97 nM; in the experiment on MOLM-13, 60 nM; in the experiment with HeLa it was 110 nM; in the experiment with K562, 60 nM; in the experiment with MCF7, 60 nM.
With `Nc1nc(NCc2ccc3c(c2)OCO3)cc(-c2cccc(OCc3ccccc3)c2)n1`, the IC50 is 1050 nM with HCT-116; 1010 nM with MOLM-13; more than 2000 nM with HeLa; 740 nM in the experiment on K562; more than 2000 nM in the experiment on MCF7.
Regarding `COc1cccc(-c2cc(N(C)Cc3ccc4c(c3)OCO4)nc(N)n2)c1`, the IC50 was found to be 35 nM in the experiment with HCT-116; 30 nM in the experiment with MOLM-13; 20 nM in the experiment on HeLa; 40 nM with K562; 120 nM with MCF7.

For the origin of these results see ChEMBL document CHEMBL5543108, “Structure-based design and synthesis of BML284 derivatives: A novel class of colchicine-site noncovalent tubulin degradation agents” (Eur J Med Chem, 2024).
